Test results from patent publication US20250368633A1, “AZEPINE FUSED RING COMPOUND AS RIPK1 INHIBITOR AND USE THEREOF” (ARTIVILA BIOPHARMA, priority 2022, published 2025).

Experiments:
RIPK1 kinase = target: T1, RIPK1 kinase (Homo sapiens, UniProt Q13546); assay: In vitro RIPK1 kinase activity assay (ADP-Glo), inhibition by compounds at 1 μM; assay type: biochemical; details: compound 1 μM; ATP 10 μM; MBP substrate 100 μg/mL; read-out: RIPK1 kinase activity inhibition rate range
T1 construct: purchased Promega VA7593
T1 sequence (Q13546 1-671): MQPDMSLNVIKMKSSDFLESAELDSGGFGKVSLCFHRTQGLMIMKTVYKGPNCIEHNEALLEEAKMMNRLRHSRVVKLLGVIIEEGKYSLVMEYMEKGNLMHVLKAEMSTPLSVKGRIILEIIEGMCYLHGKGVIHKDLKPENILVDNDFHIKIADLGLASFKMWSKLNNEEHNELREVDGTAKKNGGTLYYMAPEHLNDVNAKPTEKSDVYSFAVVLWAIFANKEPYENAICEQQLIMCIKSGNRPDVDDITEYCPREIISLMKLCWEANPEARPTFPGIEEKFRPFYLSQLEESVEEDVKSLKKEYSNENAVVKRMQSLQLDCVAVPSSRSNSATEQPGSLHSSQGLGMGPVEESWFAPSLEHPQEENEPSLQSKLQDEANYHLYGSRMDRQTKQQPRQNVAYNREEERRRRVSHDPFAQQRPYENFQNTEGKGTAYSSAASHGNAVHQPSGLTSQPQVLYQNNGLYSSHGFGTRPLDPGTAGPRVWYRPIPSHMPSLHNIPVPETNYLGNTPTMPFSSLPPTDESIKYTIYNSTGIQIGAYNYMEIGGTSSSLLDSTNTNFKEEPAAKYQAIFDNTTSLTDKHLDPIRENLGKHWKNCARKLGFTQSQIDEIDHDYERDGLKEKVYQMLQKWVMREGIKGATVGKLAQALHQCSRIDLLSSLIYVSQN
Outline: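 Compound and RIPK1 were preincubated 15 min at room temperature, then reacted 1 h with 10 μM ATP and 100 μg/mL MBP substrate in kinase buffer D. ADP formed was measured by ADP-Glo luminescence and converted to percent inhibition of kinase activity.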

U937 cells = assay: EC50 of necroptosis inhibition in U937 cells (TSZ-induced, CellTiter-Glo); assay type: cell-based; details: Homo sapiens, U-937; TSZ (hTNF-α, SM-164, Z-VAD-FMK) 20 hours; 10 concentration points; read-out: EC50 intervals of necroptosis inhibition in U937 cells
Outline: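 U937 cells pretreated 15 min with compound (10-point, 1:3 series), then necroptosis induced by TSZ (hTNF-α, SM-164, Z-VAD-FMK) for 20 h at 37 °C. Viability measured as ATP by CellTiter-Glo luminescence; inhibition normalised to untreated and TSZ-only wells, EC50 from four-parameter fit.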

SMILES: C[C@@H](NC(=O)C(=O)N[C@H]1COc2ccc(C#CCN3CCC(O)CC3)cc2N(C)C1=O)c1ccccc1 [Example 138, N^1-((S)-7-(3-(4-hydroxypiperidin-1-yl)prop-1-yn-1-yl)-5-methyl-4-oxo-2,3,4,5-tetrahydrobenzo[b][1,4]oxazepin-3-yl)-N^2-((R)-1-phenylethyl)oxalamide]
- inhibition at 1 µM (RIPK1 kinase): ≥ 75%
- EC50 (U937 cells): < 100 nM

SMILES: C[C@@H](NC(=O)C(=O)N[C@H]1COc2ccc(C#CCN3CCC(=O)CC3)cc2N(C)C1=O)c1ccccc1 [Example 139, N^1-((S)-5-methyl-4-oxo-7-(3-(4-oxopiperidin-1-yl)prop-1-yn-1-yl)-2,3,4,5-tetrahydrobenzo[b][1, 4]oxazepin-3-yl)-N^2-((R)-1-phenylethyl)oxalamide]
- inhibition at 1 µM (RIPK1 kinase): ≥ 75%
- EC50 (U937 cells): < 100 nM

SMILES: C[C@@H](NC(=O)C(=O)N[C@H]1COc2ccc(C#CCN3CCOCC3)cc2N(C)C1=O)c1ccccc1 [Example 140, N^1-((S)-5-methyl-7-(3-morpholinoprop-1-yn-1-yl)-4-oxo-2,3,4,5-tetrahydrobenzo[b][1,4]oxazepin-3-yl)-N^2-((R)-1-phenylethyl)oxalamide]
- inhibition at 1 µM (RIPK1 kinase): ≥ 75%
- EC50 (U937 cells): < 100 nM

SMILES: C[C@@H](NC(=O)C(=O)N[C@H]1COc2ccc(C#CCN3C(=O)CCC3=O)cc2N(C)C1=O)c1ccccc1 [Example 144, N^1-((S)-7-(3-(2,5-dioxopyrrolidin-1-yl)prop-1-yn-1-yl)-5-methyl-4-oxo-2,3,4,5-tetrahydrobenzo[b][1,4]oxazepin-3-yl)-N^2-((R)-1-phenylethyl)oxalamide]
- inhibition at 1 µM (RIPK1 kinase): ≥ 75%
- EC50 (U937 cells): < 100 nM

SMILES: C[C@@H](NC(=O)C(=O)N[C@H]1COc2ccc(C#CCN3CCNC(=O)C3)cc2N(C)C1=O)c1ccccc1 [Example 145, N^1-((S)-5-methyl-4-oxo-7-(3-(3-oxopiperazin-1-yl)prop-1-yn-1-yl)-2,3,4,5-tetrahydrobenzo[b][1, 4]oxazepin-3-yl)-N^2-((R)-1-phenylethyl)oxalamide]
- inhibition at 1 µM (RIPK1 kinase): ≥ 75%
- EC50 (U937 cells): < 100 nM

SMILES: C[C@@H](NC(=O)C(=O)N[C@H]1COc2ccc(C#CCN(C)C)cc2N(C)C1=O)c1ccccc1 [Example 146, N^1-((S)-7-(3-(dimethylamino)prop-1-yn-1-yl)-5-methyl-4-oxo-2,3,4,5-tetrahydrobenzo[b][1,4]oxazepin-3-yl)-N^2-((R)-1-phenylethyl)oxalamide]
- inhibition at 1 µM (RIPK1 kinase): 50 to 74%
- EC50 (U937 cells): < 100 nM

SMILES: C[C@@H](NC(=O)C(=O)N[C@H]1COc2ccc(C#CC3CN(CC#N)C3)cc2N(C)C1=O)c1ccccc1 [Example 148, N^1-((S)-7-((1-(cyanomethyl)azetidin-3-yl)ethynyl)-5-methyl-4-oxo-2,3,4,5-tetrahydrobenzo[b][1, 4]oxazepin-3-yl)-N^2-((R)-1-phenylethyl)oxalamide]
- inhibition at 1 µM (RIPK1 kinase): ≥ 75%
- EC50 (U937 cells): < 100 nM

SMILES: C[C@@H](CNC(=O)C(=O)N[C@H]1COc2ccc(C#CCCO)cc2N(C)C1=O)c1ccccc1 [Example 155, N^1-((S)-7-(4-hydroxybut-1-yn-1-yl)-5-methyl-4-oxo-2,3,4,5-tetrahydrobenzo[b][1,4]oxazepin-3-yl)-N^2-((R)-2-phenylpropyl)oxalamide]
- inhibition at 1 µM (RIPK1 kinase): ≥ 75%
- EC50 (U937 cells): < 100 nM

SMILES: C[C@H](CNC(=O)C(=O)N[C@H]1COc2ccc(C#CCCO)cc2N(C)C1=O)c1ccccc1 [Example 156, N^1-((S)-7-(4-hydroxybut-1-yn-1-yl)-5-methyl-4-oxo-2,3,4,5-tetrahydrobenzo[b][1,4]oxazepin-3-yl)-N^2-((S)-2-phenylpropyl)oxalamide]
- inhibition at 1 µM (RIPK1 kinase): 50 to 74%
- EC50 (U937 cells): < 100 nM

SMILES: C[C@@H](CNC(=O)C(=O)N[C@H]1COc2ccc(C#CC3(O)COC3)cc2N(C)C1=O)c1ccccc1 [Example 158, N^1-((S)-7-((3-hydroxyoxetan-3-yl)ethynyl)-5-methyl-4-oxo-2,3,4,5-tetrahydrobenzo[b][1,4]oxazepin-3-yl)-N^2-((R)-2-phenylpropyl)oxalamide]
- inhibition at 1 µM (RIPK1 kinase): ≥ 75%
- EC50 (U937 cells): < 100 nM

SMILES: C[C@@H](CNC(=O)C(=O)N[C@H]1COc2ccc(C#CCN3CCOCC3)cc2N(C)C1=O)c1ccccc1 [Example 159, N^1-((S)-5-methyl-7-(3-morpholinoprop-1-yn-1-yl)-4-oxo-2,3,4,5-tetrahydrobenzo[b][1,4]oxazepin-3-yl)-N^2-((R)-2-phenylpropyl)oxalamide]
- inhibition at 1 µM (RIPK1 kinase): ≥ 75%
- EC50 (U937 cells): < 100 nM

SMILES: CN1C(=O)C(NC(=O)C(=O)NCCc2cccc(F)c2)CCc2ccc(C#CCCO)cc21 (stereo not drawn) [Example 167, N^1-(3-fluorophenethyl)-N^2-(8-(4-hydroxybut-1-yn-1-yl)-1-methyl-2-oxo-2,3,4,5-tetrahydro-1H-benzo[b]azepin-3-yl)oxalamide]
- inhibition at 1 µM (RIPK1 kinase): ≥ 75%
- EC50 (U937 cells): < 100 nM
